{"source": "patent US20090023755A1", "about": "“USE OF ISTRADEFYLLINE FOR TREATING BEHAVIORAL DISORDERS” (KYOWA HAKKO KOGYO CO., LTD., priority 2002, published 2009)", "key": {"[1]": {"tested_on": "6-hydroxydopamine-treated neonatal rats", "assay": "Locomotor activity in 6-hydroxydopamine-treated neonatal rats", "type": "in vivo, rat", "description": "Methods: Female neonatal SD rats were used for the experiments. 100 μg 6-Hydroxydopamine (6-HODA) was dissolved in a 0.1% solution of ascorbic acid in saline, and the obtained solution or 0.1% ascorbic acid in saline (control) was injected first at 3 days of age into the left lateral ventricle of the rat and secondly at 6 days of age into the right lateral ventricle of the rat. At 30-37 days, locomotor activity was measured by placing the rat in a transparent acrylic box (50×50×50 cm) 60 minutes after the drug administration using digital counters with infrared sensors (Scanet MV-10MT; Toyo Sangyo Co. Ltd., Toyama, Japan).\nCompound (I) was suspended in a 0.3% aqueous Tween 80 solution, and administered orally to 6-HODA treated rats."}, "[2]": {"tested_on": "6-hydroxydopamine-treated young rats", "assay": "Tic/Tourette like symptoms in 6-hydroxydopamine-treated young rats", "type": "in vivo, rat", "description": "Methods: 6-HODA was injected into the left medial forebrain bundle of a rat to induce a unilateral lesion of dopaminergic neurons, followed by repeated oral administration of L-DOPA at 20 mg/kg twice daily for 2 weeks to make a rat model of tic-like symptoms.\nTic-like, abnormal involuntary movements were observed after day 3 during repetitive treatment with L-DOPA. Two subtypes of involuntary movements were classified as axial (lateral torsion of the head, neck and trunk towards the side contralateral to the lesion, including swing of the head) and forelimb (abnormal movements contralateral to the lesion, including kicking movements of the forelimb).\nThe severity of these movements was assigned a score from 0 to 4 to each movement as follows.\n(score 0) no deviation of head\n(score 1) lateral deviation of head: […]\n(score 2) lateral deviation of head: more than 30°, and 60° or less\n(score 3) torsion of head and upper trunk: more than 60°, and 90° or less\n(score 4) torsion of head and trunk: more than 90°\n(score 0) no movements of both distal and proximal forelimbs\n(score 1) tiny oscillatory movements of the distal forelimb\n(score 2) movements of low amplitude but causing visible translocation of both distal and proximal forelimbs\n(score 3) translocation of the whole limb with visible contraction of shoulder muscles\n(score 4) vigorous limb and shoulder movements of maximal amplitude\nCompound (I) was repeatedly administered orally to 6-HODA treated rats at 1 mg/kg for 23 days, and Tic-like, abnormal involuntary movements were observed every 10 minutes for 3 hours, each time for one minute.\nPeak score was obtained by adding the peak score for forelimb to that for axial (Data are expressed as mean±standard deviation in the following Table 1). Peak time means the time after the first administration when peak score was score observed."}, "young rats": {"tested_on": "young rats", "assay": "Acquisition of a delayed alternation task in young rats", "type": "in vivo, rat", "settings": "for Choice reaction times per session (mean ± s.e.m.) / Simple reaction times per session (mean ± s.e.m.): 0.3 mg/kg p.o. -60 min", "description": "The following experiment was carried out according to a method described in Drug Dev. Res., 35, p. 83-95 (1996) with a slight modification. Methods: Male Rj: Wistar (Han) rats were used for the experiments. Before being tested, the rats were given the standard diet each day. Several 45 mg food pellets (these were also used in the delayed alternation sessions described below) were also given them to habituate them to this novel food.\nThe aim of this phase is to train rats, on the presentation of a single centralized retractable lever, to press on it to receive a food pellet.\nThe rats were subjected to 10 lever-pressing acquisition sessions in the experimental chambers according to a fixed ratio (FR1) schedule of reinforcement. Reinforcement consists of food pellets (45 mg) delivered after each lever-press. Each daily session lasts 15 minutes. All rats received an intraperitoneal administration of physiological saline 30 minutes before each session. During the first 7 sessions, the Skinner boxes were equipped with only one fixed lever situated centrally above the food receptacle, to avoid spatial preference for the right or the left side of the experimental panel. After the 7th lever-pressing session, the boxes were equipped with two retractable levers located on either side of the food receptacle. The rats were then subjected to 3 consecutive sessions in which the left or the right lever was pseudo-randomly presented every 5 seconds. At the end of this phase 80 to 100% of the rats acquired the lever press-response. […] If some rats were close to establishing steady lever-pressing behavior they were given extra training with the aim of attaining at least 10 rats per group. Rats were assigned to treatment groups matched on the basis of their performance.\nSubsequent to lever-press acquisition sessions, all rats were subjected to delayed alternation sessions. The test was conducted for 5 days. During this phase, the boxes were equipped with two retractable levers on each side of the food distributor. Each session consisted of 35 successive trials every 10 seconds. In each trial, the rat was first presented with one lever (left or right). When the rat pressed on the lever, the rat was given a food pellet, the lever was retracted and 5 seconds later two levers were presented. The rat had to learn to press on the lever opposite to that previously presented to gain a food pellet (non-matching to sample).\nCompound (I) was suspended in 0.5% methylcellulose in distilled water and administered orally 60 minutes before each session.\nThe effect of Compound (I) was evaluated by measuring simple reaction time, which means the reaction time to each one-lever presentation, and choice reaction time, which means the reaction time to each two-lever presentation."}, "dd-strain male mice": {"tested_on": "dd-strain male mice", "assay": "Acute toxicity test", "type": "in vivo", "settings": "oral administration, mortality seven days after administration", "text": "Compound (I) was orally or intraperitoneally administered to groups of dd-strain male mice weighing 20±1 g, each group consisting of three mice."}, "[3]": {"settings": "1 mg/kg orally, compared with before administration"}, "[4]": {"settings": "0.3 mg/kg orally, compared with vehicle control rats"}}}
{"smiles": "CCn1c(=O)c2c(nc(/C=C/c3ccc(OC)c(OC)c3)n2C)n(CC)c1=O", "note": "[Compound (I), (E)-8-(3,4-dimethoxystyryl)-1,3-diethyl-7-methylxanthine]", "values": [{"measurement": "locomotor activity", "setting": "[1]; 6-HODA treated rats, 1.25 mg/kg orally, measured 60 minutes after administration", "value": "decreased locomotor activities"}, {"measurement": "locomotor activity", "setting": "[1]; 6-HODA treated rats, 5 mg/kg orally, measured 60 minutes after administration", "value": "decreased locomotor activities"}, {"measurement": "locomotor activity", "setting": "[1]; control rats treated only with 0.1% ascorbic acid in saline (vehicle), oral", "value": "increased locomotor activities"}, {"measurement": "peak score", "setting": "[2]; [3]", "value": "decreased"}, {"measurement": "peak time", "setting": "[2]; [3]", "value": "decreased"}, {"measurement": "peak time", "setting": "[2]; L-DOPA + compound 1 mg/kg p.o., Day 1", "value": 30, "unit": "min"}, {"measurement": "peak score", "setting": "[2]; L-DOPA + compound 1 mg/kg p.o., Day 1, n = 6, mean ± standard deviation, forelimb + axial", "value": "5.6 ± 1.4"}, {"measurement": "peak time", "setting": "[2]; L-DOPA + compound 1 mg/kg p.o., Day 9", "value": 40, "unit": "min"}, {"measurement": "peak score", "setting": "[2]; L-DOPA + compound 1 mg/kg p.o., Day 9, n = 6, mean ± standard deviation, forelimb + axial", "value": "4.4 ± 1.6"}, {"measurement": "peak time", "setting": "[2]; L-DOPA + compound 1 mg/kg p.o., Day 23", "value": 20, "unit": "min"}, {"measurement": "peak score", "setting": "[2]; L-DOPA + compound 1 mg/kg p.o., Day 23, n = 6, mean ± standard deviation, forelimb + axial", "value": "1.6 ± 0.6"}, {"measurement": "choice reaction times", "setting": "young rats; [4]", "value": "significantly decreased"}, {"measurement": "simple reaction times", "setting": "young rats; [4]", "value": "significantly decreased"}, {"measurement": "Choice reaction times per session (mean ± s.e.m.)", "setting": "young rats; session S1", "value": "1.71 ± 0.13", "unit": "s"}, {"measurement": "Simple reaction times per session (mean ± s.e.m.)", "setting": "young rats; session S1", "value": "3.16 ± 0.24", "unit": "s"}, {"measurement": "Choice reaction times per session (mean ± s.e.m.)", "setting": "young rats; session S2", "value": "1.52 ± 0.10", "unit": "s"}, {"measurement": "Simple reaction times per session (mean ± s.e.m.)", "setting": "young rats; session S2", "value": "2.49 ± 0.28", "unit": "s"}, {"measurement": "Choice reaction times per session (mean ± s.e.m.)", "setting": "young rats; session S3", "value": "1.22 ± 0.12", "unit": "s"}, {"measurement": "Simple reaction times per session (mean ± s.e.m.)", "setting": "young rats; session S3", "value": "1.63 ± 0.20", "unit": "s"}, {"measurement": "Choice reaction times per session (mean ± s.e.m.)", "setting": "young rats; session S4", "value": "1.13 ± 0.18", "unit": "s"}, {"measurement": "Simple reaction times per session (mean ± s.e.m.)", "setting": "young rats; session S4", "value": "1.73 ± 0.21", "unit": "s"}, {"measurement": "Choice reaction times per session (mean ± s.e.m.)", "setting": "young rats; session S5", "value": "0.92 ± 0.09", "unit": "s"}, {"measurement": "Simple reaction times per session (mean ± s.e.m.)", "setting": "young rats; session S5", "value": "1.33 ± 0.11", "unit": "s"}, {"measurement": "minimum lethal dose (MLD)", "setting": "dd-strain male mice", "value": "greater than 1000 mg/kg"}]}
